{"source": "patent US8465983B1", "about": "“Detection and delivery systems utilizing supported lipid bilayers” (priority 2005, dated 2013)", "key": {"[1]": {"assay": "Lipid bilayers on MS-PPE as barriers to superquenching by AQS, flow cytometry", "details": "10 μM AQS", "protocol": "FIG. 15 graphically illustrates flow cytometric evaluations of different lipids that involved formation of supported lipid bilayers on MS-PPE for the purpose of forming a barrier to quenching by AQS. Lipids tested were 2 mM DPPC, 1 mM egg-PC, and 2 mM DMPG. Fluorescence was normalized to that of MS-PPE without lipids and in absence of AQS. −AQS and +AQS refer to absence and presence of 10 μM AQS. The errors bars represent SD of means of normalized histograms obtained for triplicates.\nSmall unilamellar vesicles (SUVs) were prepared using a 2 mM solution of DPPC, 1 mM egg-PC, or 2 mM DMPG in chloroform. The lipid was dried by nitrogen gas followed by vacuum. The dried lipid was resuspended in phosphate buffer saline (PBS), pH 7.4, and incubated at 37° C. for 10 min, then sonicated to optical clarity in a sonication bath (Branson Cleaning Equipment Co., Shelton, Conn.).\nLipid bilayers were assembled on microspheres as previously described (Buranda et al. Langmuir 19:1654-1663 (2003); Bayerl & Bloom, Biophys J 58:357-362 (1990)). […]\nBead suspensions of 2.5×10^5 PPE-coated microspheres in 200 μL PBS were analyzed using a FACScan flow cytometer (Becton-Dickinson, Sunnyvale, Calif.) with excitation at 488 nm. Fluorescence signals were acquired on the FL-1 channel (525 nm) using log amplification and analyzed with the CellQuest software."}, "[2]": {"system": "DMPG lipid bilayer supported on MS-PPE", "assay": "Superquenching flow cytometric assay for disruption of DMPG lipid bilayer supported on MS-PPE", "assay_type": "biochemical", "details": "for quenching of the MS-PPE after addition of peptide / association constant with DMPG (reciprocal of the point of half saturation): 10 μM AQS; for quenching of the MS-PPE after addition of peptide: sMLT 3.8 μM, nMLT 1.6 μM, TRITON X-100 0.25% (w/v); for association constant with DMPG (reciprocal of the point of half saturation): binding curves, flow cytometry", "protocol": "Lipid bilayers were disrupted by adding TRITON X-100 detergent to the bead suspension to a final concentration of 0.25% (w/v).\nBead suspensions of 2.5×10^5 DMPG-coated MS-PPE in 200 μL of PBS were analyzed using a FACScan flow cytometer (Becton-Dickinson, Sunnyvale, Calif.) with excitation at 488 nm. Fluorescence signals were acquired on FL-1 channel (525 nm) using log amplification and analyzed with the CellQuest software. Kinetic analysis of disruption of supported lipid bilayer by melittin was performed by acquiring real-time data with continuous mixing of samples (10^6 MS-PPE in 800 μl of PBS) using a magnetic stirrer. The raw data were analyzed using IDL Query software developed by Bruce Edwards (Cancer Center, University of New Mexico, Albuquerque, N. Mex.).\nBecause an anionic lipid was used to form a lipid bilayer around MS-PPE, it was expected that MLT will disrupt the DMPG lipid bilayer by such a detergent-like action. This was tested by adding 10 μM AQS to DMPG-coated MS-PPE followed by treatment with one of the following: TRITON X-100 detergent, synthetic MLT (sMLT), or natural MLT (nMLT) and immediately reading the fluorescence by flow cytometry. […] These histograms resemble the ones reported previously for MS-PPE, without a lipid coating, in absence and in presence of AQS.\nFrom FIG. 18, the association constant (corresponding to the reciprocal of the point of half saturation) for nMLT and sMLT with DMPG were 5×10^6 M^−1 and 1.7×10^6 M^−1, respectively. […] Lower concentrations of nMLT, in comparison to sMLT, were required to disrupt the DMPG lipid bilayer. This might be attributed to the fact that nMLT contains some phospholipase A2 (PLA2) as a contaminant. PLA2 has a high affinity for anionic phospholipids, with an association constant of 0.5×10^10 M^−1 (Kim et al., Anal. Chem. 250, 109-116 (1997)), which is about 3000 fold higher than that of MLT. Although PLA2 activity requires calcium, which is not present in the experimental system, it has been reported that even upon addition of EDTA to natural MLT, PLA2 maintains its activity, probably due to formation of a tight complex with calcium with PLA2 (Dempsey, C. E. Biochim. Biophys. Acta 1990, 1031, 143-161).\nThe kinetics of disruption of supported lipid bilayer by MLT were monitored by measuring real-time changes in fluorescence intensity by flow cytometry (FIG. 19). Suspensions of 10^6 DMPG-coated MS-PPE in 800 μL of PBS were treated with AQS at a final concentration of 10 μM, then with either sMLT, TRITON X-100 detergent, or no treatment. […] Treatment with sMLT in the absence of AQS led to an increase in normalized fluorescence (FIG. 19, trace A). This can be attributed to disruption of the lipid bilayer by sMLT, and is consistent with a reversal of the slight quenching of fluorescence caused by the formation of a DMPG lipid bilayer over MS-PPE. Addition of AQS alone to DMPG-coated MS-PPE (FIG. 19, trace C) led to a 20% reduction in fluorescence as reported earlier. Addition of TRITON X-100 detergent to DMPG-coated MS-PPE after the addition of AQS (first dip in trace E, FIG. 19) caused immediate decrease in fluorescence to ˜10% of its original value (second dip in trace E, FIG. 19). In contrast, addition of sMLT, after the addition of AQS, (FIG. 19, trace D) led to a gradual reduction of fluorescence intensity to ˜20% of the original value. Although MLT forms dimers at high concentrations (Dempsey, C. E. Biochim. Biophys. Acta 1990, 1031, 143-161), it is monomeric at the concentrations used in this study. On the other hand, TRITON X-100 detergent forms micelles at the concentration used in this study."}, "[3]": {"system": "90:10 (molar ratio) EPC and DMPG bilayer on porous silica beads", "assay": "Suspension study: melittin on EPC/DMPG 90:10 bilayers on fluorescein-containing porous beads", "assay_type": "biochemical", "details": "highly concentrated melittin, 25° C.", "protocol": "(§1) Experimental procedures were similar to the TRITON X-100 detergent based analysis. For experiments with α-toxin, three different toxin concentrations: 15, 45 and 250 μg/mL were used at 37° C. and 25° C. Beads coated with EPC were used. In the experiments with melittin, 220 μM melittin was used with beads coated with either 100% EPC, 10:90 (molar ratio) mixture of DMPG and EPC or an 80:20 mixture of DMPG and DMPC. All melittin experiments were conducted at 25° C.\nThe interaction of highly concentrated melittin solutions was examined with membranes supported on fluorescein containing porous beads, where the membranes contained 100% EPC or a 90:10 mixture (molar ratio) of EPC and DMPG (a negatively charged lipid). […] In the absence of peptide, the amount of dye leakage from the EPC/DMPG beads was similar to that for EPC coated beads."}, "[4]": {"system": "80:20 (molar ratio) DMPG and DMPC bilayer on porous silica beads", "assay": "Suspension study: melittin on DMPG/DMPC 80:20 bilayers on fluorescein-containing porous beads", "assay_type": "biochemical", "details": "220 μM melittin (FIG. 6 legend prints 220 pM), 25° C.", "protocol": "as §1\nIn view of the results shown in FIG. 5, the effects of melittin on other mixtures of lipids were examined. […] A 80:20 mixture (molar ratio) of DMPG and DMPC was used to form the lipid bilayers used in this experiment. The increase in fluorescence intensity due to the membrane-melittin interaction, which results in the release of dye from porous beads was about 10 fold. Although this release was not as high as that observed when using TRITON X-100 detergent, it is notable in comparison to the release with α-toxin."}, "[5]": {"system": "EPC lipid bilayer on porous silica beads", "assay": "Suspension study: disruption of EPC bilayers on fluorescein-containing porous silica beads, release of dye into supernatant", "assay_type": "biochemical", "details": "all three concentrations 15, 45 and 250 μg/mL", "protocol": "Lipid coatings on beads were disrupted using 10% TRITON X-100 detergent. Each sample in micro-centrifuge tubes contained 5 mg of lipid bilayer coated, fluorescein entrapped beads in 200 μL of Tris buffer. Samples were centrifuged and 100 μL aliquots of supernatant were mixed with either 100 μL of Tris buffer or 100 μL of 10% TRITON X-100 detergent in separate centrifuge tubes. The fluorescence intensity of each mixture was immediately (time=0) recorded. Each mixture was mixed with its respective bead sample in centrifuge tube and incubated at 25° C. in the dark. After 30 min, samples were centrifuged and fluorescent intensity of the supernatants was measured. Beads were resuspended in their respective supernatants. Fluorescence intensity was again measured at 90 and 150 min.\nas §1\nPrevious suspension studies on disruption of lipid bilayers have been performed with small unilamellar vesicles where disruption of the lipid bilayer membranes was detected by monitoring the unquenching of a highly concentrated, encapsulated dye. In the present work disruption was monitored via release of fluorescein dye from porous beads, by measuring the increase in fluorescence intensity of the supernatant at 520 nm. Beads were first suspended in Tris buffer containing the disruptor. After selected time periods, beads were sedimented by centrifuging and a portion of the supernatant was taken for the measurement. The measured portion was added back to the bead sample to permit continuous monitoring. The scattering effect that was present in vesicle based studies was minimized by measuring only the supernatant after centrifugation of the beads."}, "[6]": {"system": "supported lipid bilayer surrounding a porous bead that contains fluorescein", "assay": "Kinetics of supported lipid bilayer disruption by α-toxin, pH gradient, flow cytometry", "assay_type": "biochemical", "text": "FIGS. 4A-B illustrates the effects of alpha-toxin on lipid bilayer integrity. FIG. 4A graphically illustrates dose-dependent release of fluorescent dye from a lipid bilayer coated microbead after introduction of different concentrations of alpha-toxin, a membrane-associated pore-forming protein from Staphylococcus aureus. The normalized fluorescence intensity (at 520 nm) of the supernatant is plotted versus time for EPC-coated, fluorescein filled porous beads when using different concentrations of α-toxin added. 10% Triton was added after 150 min. FIG. 4B illustrates the kinetics of disrupting a supported lipid bilayer by α-toxin as monitored by recording changes in fluorescence intensity every 2 minutes by flow cytometry. The lipid bilayer surrounded a porous bead that contains a pH-reactive molecule (fluorescein), and the pH outside the beads was adjusted to 11.0, whereas inside the beads the pH was 2.6. As illustrated, increasing amounts of c′-toxin increases the fluorescence emitted from within the beads.\nIn another experiment a lipid bilayer surrounding a porous bead that contains a pH-reactive molecule (fluorescein) was exposed to α-toxin. The pH outside the beads was adjusted to 11.0, whereas inside the beads the pH was 2.6. The kinetics of disruption of supported lipid bilayer by α-toxin were monitored by recording changes in fluorescence intensity every 2 minutes by flow cytometry. For the first 8 minutes there was no significant change in fluorescence intensity (FIG. 4B). However, after 8 minutes there was a gradual increase in fluorescence intensity (FIG. 4B) resulting from insertion of α-toxin into the supported lipid bilayer thus forming channels permeable to hydrogen cations and hydroxyl ions, which reduces the difference in the pH outside and inside the microspheres. […] This can be attributed to insertion of many α-toxin channels at this high concentration leading to disruption of the lipid bilayer and immediate equilibration of the pH inside and outside the porous microspheres."}}, "data": [{"molecule": "CCCCCCCCCCCCCCCC(=O)OC[C@H](COP(=O)([O-])OCC[N+](C)(C)C)OC(=O)CCCCCCCCCCCCCCC", "note": "[DPPC, 1,2-dipalmitoyl-sn-glycero-3-phosphatidylcholine]", "values": [{"measurement": "fluorescence with quencher relative to MS-PPE and quencher without the lipid", "setting": "[1]", "result": "~10", "unit": "fold"}, {"measurement": "reduction (quenching) of polymer fluorescence of lipid-coated MS-PPE on addition of AQS", "setting": "[1]", "result": "~40", "unit": "%"}]}, {"molecule": "nMLT: natural melittin from Sigma, contains some phospholipase A2 as a contaminant", "values": [{"measurement": "quenching of the MS-PPE after addition of peptide", "setting": "[2]", "result": "comparable to that occurring on addition of TRITON X-100 detergent"}, {"measurement": "association constant with DMPG (reciprocal of the point of half saturation)", "setting": "[2]", "result": "5e+06", "unit": "M⁻¹"}]}, {"molecule": "sMLT: synthetic melittin obtained from Sigma", "values": [{"measurement": "quenching of the MS-PPE after addition of peptide", "setting": "[2]", "result": "comparable to that occurring on addition of TRITON X-100 detergent"}, {"measurement": "fluorescence intensity after addition, % of original value (real-time kinetics)", "setting": "[2]; 10^6 DMPG-coated MS-PPE in 800 μL PBS, after 10 μM AQS", "result": "~20", "unit": "%"}, {"measurement": "association constant with DMPG (reciprocal of the point of half saturation)", "setting": "[2]", "result": "1.7e+06", "unit": "M⁻¹"}]}, {"molecule": "CC[C@H](C)[C@H](NC(=O)CN)C(=O)NCC(=O)N[C@@H](C)C(=O)N[C@H](C(=O)N[C@@H](CC(C)C)C(=O)N[C@@H](CCCCN)C(=O)N[C@H](C(=O)N[C@@H](CC(C)C)C(=O)N[C@H](C(=O)N[C@H](C(=O)NCC(=O)N[C@@H](CC(C)C)C(=O)N1CCC[C@H]1C(=O)N[C@@H](C)C(=O)N[C@@H](CC(C)C)C(=O)N[C@H](C(=O)N[C@@H](CO)C(=O)N[C@@H](Cc1c[nH]c2ccccc12)C(=O)N[C@H](C(=O)N[C@@H](CCCCN)C(=O)N[C@@H](CCCNC(=N)N)C(=O)N[C@@H](CCCCN)C(=O)N[C@@H](CCCNC(=N)N)C(=O)N[C@@H](CCC(N)=O)C(=O)N[C@@H](CCC(N)=O)C(N)=O)[C@@H](C)CC)[C@@H](C)CC)[C@@H](C)O)[C@@H](C)O)C(C)C)C(C)C", "note": "[melittin]", "values": [{"measurement": "release of dye from EPC/DMPG coated beads compared with 100% EPC coated beads", "setting": "[3]", "result": "slightly higher"}, {"measurement": "increase in fluorescence intensity due to release of dye", "setting": "[4]", "result": "about 10 fold"}]}, {"molecule": "α-toxin: membrane active pore-forming protein secreted by Staphylococcus aureus, ˜33 kDa", "values": [{"measurement": "increase in fluorescence intensity after 150 min", "setting": "[5]; 25° C.", "result": "about 3 fold"}, {"measurement": "increase in fluorescence intensity after 150 min", "setting": "[5]; 37° C.", "result": "about 6.5 fold"}, {"measurement": "concentration at which increase in fluorescence intensity reached its maximum", "setting": "[6]; pH 11.0 outside, pH 2.6 inside beads", "result": 15, "unit": "µg/mL"}, {"measurement": "time without significant change in fluorescence intensity before gradual increase", "setting": "[6]; pH 11.0 outside, pH 2.6 inside beads, read every 2 minutes", "result": 8, "unit": "min"}, {"measurement": "change in fluorescence intensity", "setting": "[6]; α-toxin 45 μg/mL", "result": "did not cause a change in fluorescence intensity different from the baseline"}]}]}
